# US9079930B2, “Substituted pyrimidines” (MERCK SHARP & DOHME CORP., priority 2011, dated 2015)
# Biological target: T1, FLAG-tagged full length PHD2 (Homo sapiens, UniProt Q9GZT9)
# T1 construct: FLAG-tagged full length PHD2 expressed in and purified from baculovirus-infected Sf9 cells; FLAG; made in house; host or cells: baculovirus-infected Sf9 cells
# Assay: PHD2 inhibition assay (time resolved fluorescence, HIF-1α peptide hydroxylation, VHL complex detection)
# Format: biochemical
# Details: 0.2 μM 2-oxoglutarate, 0.5 μM HIF-1α peptide
# Procedure: To each well of a 96-well plate was added 1 μL of test compound in DMSO and 20 μl of assay buffer (50 mM Tris pH 7.4/0.01% Tween-20/0.1 mg/ml bovine serum albumin/10 μM ferrous sulfate/i mM sodium ascorbate/20 μg/ml catalase) containing 0.15 μg/ml FLAG-tagged full length PHD2 expressed in and purified from baculovirus-infected Sf9 cells. After a 30 min preincubation at room temperature, the enzymatic reactions were initiated by the addition of 4 μL of substrates (final concentrations of 0.2 μM 2-oxoglutarate and 0.5 μM HIF-1α peptide biotinyl-DLDLEMLAPYIPMDDDFQL (SEQ ID NO: 1)). After 2 hr at room temperature, the reactions were terminated and signals were developed by the addition of a 25 μL quench/detection mix to a final concentration of 1 mM ortho-phenanthroline, 0.1 mM EDTA, 0.5 nM anti-(His)6 LANCE reagent (Perkin-Elmer Life Sciences), 100 nM AF647-labeled streptavidin (Invitrogen), and 2 μg/ml (His)6-VHL complex (S. Tan (2001) Protein Expr. Purif. 21, 224-234). The ratio of time resolved fluorescence signals at 665 and 620 nm was determined, and percent inhibition was calculated relative to an uninhibited control sample run in parallel.
# T1 sequence (Q9GZT9 whole entry): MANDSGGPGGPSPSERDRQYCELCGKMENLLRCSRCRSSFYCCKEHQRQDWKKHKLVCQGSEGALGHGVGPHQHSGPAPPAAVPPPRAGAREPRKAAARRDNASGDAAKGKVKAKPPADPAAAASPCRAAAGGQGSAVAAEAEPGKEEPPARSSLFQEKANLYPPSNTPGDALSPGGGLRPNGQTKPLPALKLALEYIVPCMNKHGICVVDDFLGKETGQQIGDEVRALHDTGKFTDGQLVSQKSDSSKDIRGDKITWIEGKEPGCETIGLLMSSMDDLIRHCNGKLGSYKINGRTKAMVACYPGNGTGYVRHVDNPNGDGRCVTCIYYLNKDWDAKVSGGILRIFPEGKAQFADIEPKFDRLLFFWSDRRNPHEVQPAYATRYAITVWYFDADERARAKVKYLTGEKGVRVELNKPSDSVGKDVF
row,Compound,IC50 [nM]
1,"CCCP(=O)(O)c1ccc(C(NC(=O)c2cnc(-n3cccn3)nc2O)c2ccccc2)cc1 (stereo not drawn) [Compound 16-1, 4-((4-hydroxy-2-(1H-pyrazol-1-yl)pyrimidine-5-carboxamido)(phenyl)methyl)phenyl(propyl)phosphinic acid]",0.5 to 20
2,"O=C(NC(c1ccccc1)P(=O)(O)O)c1cnc(-c2cccnn2)nc1O (stereo not drawn) [Compound 30-1, (4-hydroxy-2-(pyridazin-3-yl)pyrimidine-5-carboxamido)(phenyl)methylphosphonic acid]",20 to 100
3,"CC(C)(NC(=O)c1cnc(-c2cccnn2)nc1O)c1ccc(-c2ccc(P(=O)(O)O)cc2)nc1 [Compound 33-1, 4-(5-(2-(4-hydroxy-2-(pyridazin-3-yl)pyrimidine-5-carboxamido)propan-2-yl)pyridine-2-yl)phenylphosphonic acid]",0.5 to 20
4,"C[C@@H](NC(=O)c1cnc(-c2cccnn2)nc1O)c1ccc(P(=O)(O)O)cc1 [Compound 3-5a, (R)-4-(1-(4-hydroxy-2-(pyridazin-3-yl)pyrimidine-5-carboxamido)ethyl)phenylphosphonic acid]",20 to 100
5,"CP(=O)(O)c1cccc([C@@H](NC(=O)c2cnc(-n3cccn3)nc2O)c2ccccc2)c1 [Compound 25-1, 3-((S)-(4-hydroxy-2-(1H-pyrazol-1-yl)pyrimidine-5-carboxamido)(phenyl)methyl)phenyl(methyl)phosphinic acid]",0.5 to 20
6,"CCOP(C)(=O)c1ccc(C(NC(=O)c2cnc(-n3cccn3)nc2O)c2ccccc2)cc1 (stereo not drawn) [Compound 8-3, Ethyl 4-((4-hydroxy-2-(1H-pyrazol-1-yl)pyrimidine-5-carboxamido)(phenyl)methyl)phenyl(methyl)phosphinate]",0.5 to 20
7,"CCOP(=O)(OCC)c1ccc(C(C(=O)Nc2cnc(-n3cccn3)nc2O)c2ccccc2)cc1 (stereo not drawn) [Compound 14-1, Diethyl 4-(2-(4-hydroxy-2-(1H-pyrazol-1-yl)pyrimidin-5-ylamino)-2-oxo-1-phenylethyl)phenylphosphonate]",0.5 to 20
8,"CP(=O)(O)c1ccc([C@H](NC(=O)c2cnc(-n3cc(F)cn3)nc2O)c2ccc(F)cc2)cc1 [Compound 29-1, 4-((R)-(2-(4-fluoro-1H-pyrazol-1-yl)-4-hydroxypyrimidine-5-carboxamido)(4-fluorophenyl)methyl)phenyl(methyl)phosphinic acid]",0.5 to 20
9,"CC(C)OP(=O)(O)C(NC(=O)c1cnc(-c2ccccn2)nc1O)c1ccccc1 (stereo not drawn) [Compound 6-2, Isopropyl Hydrogen (4-hydroxy-2-(pyridin-2-yl)pyrimidine-5-carboxamido)(phenyl)methylphosphonate]",20 to 100
10,"CCOC(=O)[C@H](C)NP(=O)(N[C@@H](C)C(=O)OCC)c1ccc(C(NC(=O)c2cnc(-c3cccnn3)nc2O)c2ccc(OC)cc2)cc1 (stereo partly drawn) [Compound 31-2, (2S,2′S)-Diethyl 2,2′-((4-((4-hydroxy-2-(pyridazin-3-yl)pyrimidine-5-carboxamido)(4-methoxyphenyl)methyl)phenyl)phosphoryl)bis(azanediyl)dipropanoate]",0.5 to 20
11,"CP(=O)(O)c1cccc([C@H](NC(=O)c2cnc(-n3cccn3)nc2O)c2ccccc2)c1 [Compound 24-1, 3-((R)-(4-hydroxy-2-(1H-pyrazol-1-yl)pyrimidine-5-carboxamido)(phenyl)methyl)phenyl(methyl)phosphinic acid]",0.5 to 20
12,"CP(=O)(O)c1ccc([C@@H](NC(=O)c2cnc(-n3cccn3)nc2O)c2ccc(F)cc2)cc1 [Compound 19-1, 4-((S)-(4-fluorophenyl)(4-hydroxy-2-(1H-pyrazol-1-yl)pyrimidine-5-carboxamido)methyl)phenyl(methyl)phosphinic acid]",0.5 to 20
13,"CCOP(=O)(OCC)c1ccc(C(C)(C)C(=O)Nc2cnc(-n3cccn3)nc2O)cc1 [Compound 12-1, Diethyl 4-(1-(4-hydroxy-2-(1H-pyrazol-1-yl)pyrimidin-5-ylamino)-2-methyl-1-oxopropan-2-yl)phenylphosphonate]",100 to 10000
14,"COc1ccc(C(NC(=O)c2cnc(-n3cccn3)nc2O)c2ccc([PH](=O)O)cc2)cc1 (stereo not drawn) [Compound 9-1, 4-((4-Hydroxy-2-(1H-pyrazol-1-yl)pyrimidine-5-carboxamido)(4-methoxyphenyl)methyl)phenylphosphinic acid]",0.5 to 20
15,"CP(=O)(O)c1ccc([C@H](NC(=O)c2cnc(-n3cccn3)nc2O)c2ccc(F)cc2)cc1 [Compound 18-1, 4-((R)-(4-fluorophenyl)(4-hydroxy-2-(1H-pyrazol-1-yl)pyrimidine-5-carboxamido)methyl)phenyl(methyl)phosphinic acid]",0.5 to 20
16,"O=C(NC(c1ccc2ccccc2c1)P(=O)(O)O)c1cnc(-c2cccnn2)nc1O (stereo not drawn) [Compound 30-3, (4-Hydroxy-2-(pyridazin-3-yl)pyrimidine-5-carboxamido)(naphthalen-2-yl)methyl phosphonic acid]",0.5 to 20
17,"O=C(Cc1cccc(P(=O)(O)O)c1)Nc1cnc(-c2cccnn2)nc1O [Compound 35-1, 3-(2-(4-hydroxy-2-(pyridazin-3-yl)pyrimidin-5-ylamino)-2-oxoethyl)phenyl phosphonic acid]",100 to 10000
18,"COc1ccc(C(NC(=O)c2cnc(-c3cccnn3)nc2O)c2cccc(P(=O)(O)O)c2)cc1 (stereo not drawn) [Compound 34-1, 3-((4-hydroxy-2-(pyridazin-3-yl)pyrimidine-5-carboxamido)(4-methoxyphenyl)methyl)phenylphosphonic acid]",0.5 to 20
19,"CCOP(=O)(OCC)c1ccc(C(NC(=O)c2cnc(-c3ccccn3)nc2O)c2ccc(OC)cc2)cc1 (stereo not drawn) [Compound 1-1-1, Diethyl 4-((4-hydroxy-2-(pyridin-2-yl)pyrimidine-5-carboxamido)(4-methoxyphenyl)methyl)phenylphosphonate]",0.5 to 20
20,"CCOP(=O)(OCC)c1ccc(C(C)NC(=O)c2cnc(-c3ccccn3)nc2O)cc1 (stereo not drawn) [Compound 3-1, Diethyl 4-(1-(4-hydroxy-2-(pyridin-2-yl)pyrimidine-5-carboxamido)ethyl)phenyl phosphonate]",20 to 100
21,"CCOP(=O)(OCC)c1ccc(C(C(=O)Nc2cnc(-c3cccnn3)nc2O)c2ccccc2)cc1 (stereo not drawn) [Compound 14-2, Diethyl 4-(2-(4-hydroxy-2-(pyridazin-3-yl)pyrimidin-5-ylamino)-2-oxo-1-phenylethyl)phenylphosphonate]",100 to 10000
22,"CCOP(=O)(O)c1ccc(C(NC(=O)c2cnc(-c3ccccn3)nc2O)c2ccccc2)cn1 (stereo not drawn) [Compound 4-2, Ethyl hydrogen 5-((4-hydroxy-2-(pyridin-2-yl)pyrimidine-5-carboxamido)(phenyl)methyl)pyridin-2-ylphosphonate]",0.5 to 20
23,"CCOP(=O)(O)c1ccc(C(NC(=O)c2cnc(-c3ccccn3)nc2O)c2ccccc2)cc1 (stereo not drawn) [Compound 2-3, Ethyl 4-((4-hydroxy-2-(pyridin-2-yl)pyrimidine-5-carboxamido)(phenyl)methyl)phenylphosphonate]",0.5 to 20
24,"CCOP(=O)(OCC)c1ccc(C(NC(=O)c2cnc(-c3ccccn3)nc2O)c2ccccc2)cc1 (stereo not drawn) [Compound 2-1, Diethyl 4-((4-hydroxy-2-(pyridin-2-yl)pyrimidine-5-carboxamido)(phenyl)methyl)phenyl phosphonate]",0.5 to 20
